Columns and labels:
[1] = tested on: APP processing in CHO cells (CUR3, APP695); assay: APP processing in copper-resistant CHO-CUR3 cells transfected with APP695 (35S-methionine labeling, immunoprecipitation); type: cell-based, human
From the text: (§1) CHO cells were transfected with a c-myc-tagged APP695 vector (Peraus et al., J. Neurosci 17, page 7714-7724 (1997)) or with the expression vector (pcDNA3) by means of a highly efficient calcium phosphate transfection (Chen et al., Biotechniques 6, pages 632-638 (1988). The pSP65 (Invitrogen company) N-tag-APP 695 DNA was cloned into the vector pcDNA3 (Invitrogen/ITC Biotechnology, Heidelberg) using the SmaI or EcoRV cloning sites. The transfection efficiency was checked by means of immunoprecipitation of APP with polyclonal rabbit-anti-c-myc antibody (18/47; produced against the amino acid sequence EQKLISEEDL of the c-myc sequence; from Eurogentec, Seraing, Belgium) and immunoblots using the monoclonal mouse antibody 22C11 (Boehringer Mannheim) in the “ECL” detection system (Amersham, Braunschweig). The parental CHO-K1 cells and the copper-resistant cell variant CUR3 were cultured at 37° C. in “Eagles” medium (BME), to which 2 mM L-glutamine, 0.1 mM proline, 20 mM HEPES and 10% fetal calf serum (Boehringer Ingelheim) were added. The basic copper concentration was 0.8 μM. CUR3 cells were cultured in a medium with 200 μM of copper added.
(§2) Stably transfected CHO cells of a culture dish (60 mm) were treated for 4 hours with 2 ml essential minimum medium (MEM) which contained no methionine (Sigma company, Munich) and was supplemented with 220 μCi [^35S]methionine (Amersham company, Braunschweig) and 5% N2. The conditioned medium (CM) and the cells were collected and immunorepcipitated. The protein concentrations were determined beforehand by means of a “BioRad” protein assay (Bradford et al., Anal. Biochem. 72, pages 248-254 (1976)) or the radioactively labeled proteins were precipitated with 10% trichloroacetic acid (TCA) and the incorporated [^35S]methionine was measured (Beckman LS 6000IC). The cells were lyzed in extraction buffer which contained 50 mM Tris-CHl (pH value 7.5), 150 mM NaCl, 2 mM EDTA, 2% triton X-100, 2% NP40, 10 μg/ml aprotinin and 10 μg/ml leupeptin. For removing cell debris, the lysate and the medium were centrifuged for 10 minutes at 13,000×g and the medium was adjusted to 25 mM Tris-CHl (pH value 8.5), 1 mM PMSF, 10 μg/ml aprotinin, 10 μg/ml leupeptin, 0.5% triton X-100 and 0.5% NP40. The solubilized proteins were diluted in 100 mM Tris-HCl (pH value 7.5), 300 mM NaCl and 4 mM EDTA at a concentration of 1:2. The supernatants were incubated overnight at 4° C. with APP antibodies with end-over-end rotation in an overhead shaker. In some experiments, the resulting supernatants were then analyzed using Aβ antiserum. Immunocomplexes were obtained with protein A sepharose and analzyed as described in (Weidemann et al., Cell 57, pages 115-126 (1989)).
(§3) For detecting APP, polyclonal rabbit antibodies directed against recombinant Fd-APP770 (antiserum 22734/6 against the amino acid residues 18-687 of APP770 or antiserum 23850/6 against the APP amino acid residues 18-491 (FIG. 1) were diluted at a concentration of 1:500 for precipitation. The antisera were produced in a laboratory according to standard methods known to the person skilled in the art. Aβ, p3.5 and […] were recognized by the polyclonal antibodies 830 (diluation 1:50; Aβ, p3.5 and p3 were likewise precipitated) which had been produced against a synthetic peptide corresponding to the Aβ amino acid residues 1-40 (FIG. 1). Aβ and its derivatives were separated by 10-20% Tris-tricin-polyacrylamide gels and APP using 7% Tris-glycin-polyacrylamide gels or 7% Tris-tricin-polyacrylamide gels. For immunoblots cell extracts and extracellular medium were precipitated with 10% TCA, washed with acetone and dissolved in sample buffer. After the electrophoresis, the gels were further processed as described in (Simons et al., J. Neurosci 16, pages 899-908 (1996)) and quantified with the “Fuji-Bas-PhosphorImager” system. The data were expressed as average values +/− standard deviation and, unless indicated otherwise, they represent the result of at least two separate experiments. […]

[2] = tested on: Aβ peptide with the human sequence; assay: Aβ production in CNS and blood of transgenic mice given Zn(II); type: in vivo; conditions: orally, i.v., i.p., s.c. and i.c.
Method: (2) Primary neurons were isolated from transgenic mice which expressed the Aβ peptide with the human sequence, and their Aβ production was determined as described in (1).
(3) The above mentioned Zn(II) concentrations in PBS were applied to transgenic mice orally, i.v., i.p., s.c. and i.c. (see (2)) and the Aβ production was determined in the CNS and in the blood (which was withdrawn from the caudal vein) as outlined above in (1). The serum obtained from the caudal vein of the mice (150-200 μl) is filled using PBS buffer up to a volume of 500 μl and incubated with 5 μg monoclonal antibody WO-2 (Ida et al., supra) and 20 μl of a 1:1 suspension of protein G sepharose overnight at 4° C. on an overhead shaker. The resulting supernatant is then incubated with polyclonal antibodies (22734/6) against APP and the immunocomplexes are analyzed as described above in (1). The Aβ immunocomplexes are separated by means of 12% bis-tricin Novex gels in accordance with the instructions of the manufacturer and the relevant molecular weight range is analyzed after the transfer of the proteins to a nitrocellulose filter (380 mA at 4° C. for 40 minutes) with the monoclonal antibody WO-2 using the ECL technique according to Ida et al. The result here was also that a decrease of the Aβ production could be obtained from a concentration of 50 μM Zn(II).

[3] = tested on: APP processing in CHO cells (K1, APP695); assay: APP processing in parental CHO-K1 cells transfected with APP695 (35S-methionine labeling, immunoprecipitation); type: cell-based, human
From the text: as §1, §2, §3

[4] = tested on: CHO cells stably transfected with human APP695; assay: Aβ production in CHO cells stably transfected with human APP695, cell variant not given; type: cell-based
Method: The employed Zn^2+ concentrations were 10 μM, 50 μM, 100 μM and 200 μM. Thereafter, it was studied from which concentration of Zn(II) the release of the Aβ peptide can be inhibited. The following experiments were carried out for this purpose:
(1) CHO cells which were stably transfected with human APP695 were incubated in MEM medium with the above-mentioned concentrations of Zn(II) (10 to 200 μM in PBS). CHO cells with copper ions (10 to 50 μM in PBS) or without any addition were incubated as controls. The production of Aβ (total), Aβ40 and Aβ42 was determined qualitatively and quantitatively with polyclonal and monoclonal antibodies. APP, Aβ and p3 were detected according to biosynthetic labeling with ^35S methionine as followed. The stably transfected CHO cells, which were incubated as mentioned above with the respective substances, were incubated for four hours with 220 μCi ^35S methionine as follows. […] The protein concentrations were determined beforehand using the protein detection kit from BioRad company and the amount of incorporated radioactivity was determined via scintillation counting. […] The supernatants were incubated with the above mentioned polyclonal APP and Aβ antibodies overnight at 4° C., the immunocomplexes formed were isolated with protein A sepharose and analyzed according to the method described in Ida et al., J. Biol. Chem. 271, pp. 22908-22914.

CHO cells = assay: Viability of CHO cells (LDH outflow); type: cell-based; conditions: different copper concentrations, 4 h labeling, entire experiment
Method: During the labeling period copper chloride or zinc chloride (concentrations: 5 μM to 200 μM) were added to the culturing medium. D(−)-penicillamine (PEN; Sigma), bathocuproin-disulfonate (BC; Aldrich) and 1,10-phenanthroline ([…]; Sigma) were added to the medium up to a final concentration of 100 μM (PEN and BC) or 200 μM (PEN). The viability of the cells was measured by means of the lactate dehydrogenase (LDH) outflow into the culture (41). The LDH outflow was measured as enzyme activity (units/liter) after 2 and 4 hours in the medium of 70% confluent monolayers of CHO cells in “Eagle” medium modified according to Dulbecco (DMEM)
For investigating the regulation of the APP metabolism by copper ions, CHO cells stably transfected with APP695 were labeled for 4 hours with ^35S-labeled methionine in the presence of different copper concentrations and following immunoprecipitation with polyclonal antibodies which detect APP (22734/6) or detect Aβ and p3 ([…]), the secretions of the APP ectodomain, of Aβ and p3 were measured. […] APP695 derivatives released in conditioned medium were detected as bands of 105 and 97.5 kDa (FIG. 3b), they probably differing in that the upper band has a higher content of sialic acids.

## [Cl-].[Cl-].[Zn+2] [Zn(II), zinc chloride]
[1]; 50 μM Zn(II)
  Aβ production reduced by: 60%
[1]; 100 μM Zn(II)
  Aβ production reduced by: 90%
[1]; 200 μM Zn(II)
  Aβ production reduced by: 99%
[1]; Zn(II) concentrations above 50 μM
  secretion of APP: lowered secretion
[2]
  Zn(II) concentration from which a decrease of the Aβ production could be obtained: ≥ 50 µM
[3]; CHO-K1 cells, Zn(II) concentrations above 50 μM
  secretion of APP: lowered secretion
[3]; K1 cells, 50 μM Zn(II)
  Aβ production reduced by: 20%
[3]; K1 cells, 200 μM Zn(II)
  Aβ production reduced by: 60%
[4]; CHO cells, MEM medium, 10 to 200 μM Zn(II) tested
  Zn(II) concentration from which Aβ production could be reduced drastically: ≥ 50 µM

## [Cl][Cu][Cl] [Cu(II), copper chloride]
[1]; 50 μM Cu(II), 4 h, cell lysate (cAPP)
  APP695, [%] increase/decrease as compared to standard conditions: 550%
[1]; 50 μM Cu(II), 4 h, medium
  p3, [%] increase/decrease as compared to standard conditions: 270%
[1]; 50 μM Cu(II), 4 h, medium, % of basal concentration
  Aβ, [%] increase/decrease as compared to standard conditions: 20%
[1]; 50 μM Cu(II), 4 h, soluble APP695 in conditioned medium, relative to basal medium (0.8 μM Cu)
  SAPP695c, [%] increase/decrease as compared to standard conditions: 265%
[1]; Cu(II) concentrations below the basal level (0.8 μM)
  Aβ levels: increased drastically
[1]; above 100 μM copper
  Aβ concentration: hardly detectable
[1]; between 20 μM and 50 μM copper in the medium
  secretion of p3: 270%
[1]; conditioned medium
  Cu(II) concentration at which the increase in sAPP695 reached a maximum: 50 µM
[1]; copper concentration of 50 μM exceeded in the medium
  percentage of cAPP: 550%
[1]; increasing copper (50 μM and above)
  p3.5 concentration: strongly lowered
[3]; K1 cells, 10 μM Cu(II), 4 h
  Aβ, [%] increase/decrease as compared to standard conditions: 20%
  p3, [%] increase/decrease as compared to standard conditions: 154%
[3]; K1 cells, 10 μM Cu(II), 4 h, cell lysate (cAPP)
  APP695, [%] increase/decrease as compared to standard conditions: 295%
[3]; K1 cells, 10 μM Cu(II), 4 h, soluble APP695 in medium
  SAPP695c, [%] increase/decrease as compared to standard conditions: 475%
[3]; K1 cells, 10 μM copper, endogenous KPI-containing isoforms
  sAPP751/770 level: 275%
[3]; K1 cells, Cu(II) concentrations below the basal level (0.8 μM)
  Aβ levels: increased drastically
[3]; K1 cells, conditioned medium
  Cu(II) concentration at which the increase in sAPP695 reached a maximum: 10 µM
[3]; K1 cells, increasing copper concentrations
  Aβ production: below the detection limit
CHO cells
  viability of the cell lines: no reduced viability

## [Ca+2] [Ca(II)]
[4]; above 200 μM, detection limit reached
  Aβ production: no further decrease

From patent publication US20050186287A1, “Copper agonist that binds on the copper binding site of APP and/or exerts an inhibiting effect on the release of amyloid Abeta peptide” (priority 1999, published 2005)
